Test results: article PMC12040169 (PLOS Biology, 2025)

Experiment: in vitro
Conditions: human, hela cells, % viability

SMILES	viability at 28.5 h, 10 µM [%]
CCc1nc2ccc(C(=O)NC3=NN(c4ccccc4)C(=O)C3)cn2c1N(C)Cc1cccs1 [CBK145557]	93
CCc1nc2ccc(C(=O)NCC3CCCCC3)cn2c1N(C)Cc1ccc(OC)cc1 [CBK145568]	91.1
CCc1nc2ccc(C(=O)N3CCN(C)CC3)cn2c1N(C)Cc1ccc(NC(C)=O)cc1 [CBK145603]	87
CCCCN(C=O)c1c(CC)nc2ccc(C(=O)N3CCN(C)CC3)cn12 [CBK145707]	93.1
CCCCN(C=O)c1c(CC)nc2ccc(C(=O)NCC3CCCCC3)cn12 [CBK145708]	85.3
CCCCN(C(C)=O)c1c(CC)nc2ccc(C(=O)NCCCn3ccnc3)cn12 [CBK145759]	96.1
CCCCNC(=O)c1ccc2nc(CC)c(N(C)C(=O)C3CCCCC3)n2c1 [CBK145791]	88.9
CCc1nc2ccc(C(=O)NC3=NC(=O)CS3)cn2c1N(CC)C(C)=O [CBK145839]	100
CCc1nc2ccc(C(=O)NCCCN3CCCC3=O)cn2c1N(C)C(=O)COc1ccccc1 [CBK145855]	98.7
Cc1nc2ccc(C(=O)N(C)CCN(C)C)cn2c1N(C)CC1CCCCC1 [CBK145894]	96.7
CCc1nc2ccc(C(=O)Nc3ccc4c(c3)CCN4C(C)=O)cn2c1N(C=O)CC [CBK145944]	102
CCN(CC)c1c(C)nc2ccc(C(=O)NCCc3ccccn3)cn12 [CBK145951]	94.9
CCN(CC)c1c(C)nc2ccc(C(=O)N3CCN(C)CC3)cn12 [CBK145955]	91.5
CCN(CC)c1c(C)nc2ccc(C(=O)NCc3ccc(N(C)C)cc3)cn12 [CBK145961]	92.7
CCN(CC)c1c(C)nc2ccc(C(=O)NCCN3CCNC3=O)cn12 [CBK145977]	97.8
CCN(CC)c1c(C)nc2ccc(C(=O)Nc3cc(-c4ccccc4)ccc3OC)cn12 [CBK145980]	121
CCCCN(C)c1c(C)nc2ccc(C(=O)N(C)CCCN(C)C)cn12 [CBK146006]	103
CCc1nc2ccc(C(=O)Nc3ccc(Cl)c(Cl)c3)cn2c1N(CC)CCOC [CBK146042]	94
Cc1nc2ccc(C(=O)NC3=NC(=O)CS3)cn2c1N(C)Cc1cccs1 [CBK146110]	86.3
CCc1nc2ccc(C(=O)N3CCNC(=O)C3)cn2c1N(CCC(C)C)CCN(C)C [CBK146255]	92.4
CCNC(=O)N(C)c1c(CC)nc2ccc(C(=O)N3CCN(C(C)=O)CC3)cn12 [CBK146362]	104

SMILES	viability at 28.5 h, 10 µM [%]
CCc1nc2ccc(C(=O)N3CCCCC3)cn2c1N(C)C(=O)c1cccc(OC)c1 [CBK146392]	113
Cc1nc2ccc(C(=O)N3CCN(c4ccccc4)CC3)cn2c1N(C)C(=O)c1cccs1 [CBK146544]	99
COc1ccccc1CNC(=O)c1ccc2nc(C)c(N(C)C(=O)c3cccs3)n2c1 [CBK146546]	86.9
CCc1nc2ccc(C(=O)N(C)CCN(C)C)cn2c1N(C)Cc1cc2ccccc2s1 [CBK146551]	89.3
CCc1nc2ccc(C(=O)NCCN3CCOCC3)cn2c1N(C)Cc1cc2ccccc2s1 [CBK146561]	101
CCc1nc2ccc(C(=O)NC3CCN(C)CC3)cn2c1N(C)C=O [CBK146594]	108
CCc1nc2ccc(C(=O)NCCN3CCOCC3)cn2c1N(C=O)Cc1ccc(OC)cc1 [CBK146625]	97.9
CCc1nc2ccc(C(=O)Nc3cccc(NS(C)(=O)=O)c3)cn2c1N(C)CCCc1ccccc1 [CBK146670]	101
CCc1nc2ccc(C(=O)NCCN(C)C)cn2c1N(CC)CC(=O)N(C)C [CBK146762]	89.6
Cc1nc2ccc(C(=O)N3CCN(C)CC3)cn2c1N(C)C(=O)CCc1ccccc1 [CBK146786]	95.3
CCc1nc2ccc(C(=O)N3CCC(O)(Cc4ccccc4)CC3)cn2c1N(CC)C(=O)CCC1CCCC1 [CBK146854]	88.1
CCc1nc2ccc(C(=O)Nc3ccc(NC(C)=O)cc3)cn2c1N(C)C(=O)Cc1ccccc1 [CBK146855]	95.3
CCc1nc2ccc(C(=O)N(C)CCN(C)C)cn2c1N(C)C(=O)Cc1ccccc1 [CBK146858]	90.8
CCc1nc2ccc(C(=O)N(C)CCN(C)C)cn2c1N(CC)C(=O)NCCc1ccccc1 [CBK147036]	96.4
CCCCC(=O)N(C)c1c(C)nc2ccc(C(=O)Nc3ccc(C(N)=O)cc3)cn12 [CBK147066]	94.5
Cc1nc2c(OCC(=O)C(C)(C)C)cccn2c1N(C)C(=O)C1CCCCC1 [CBK147145]	92.4
Cc1nc2c(Oc3ncccn3)cccn2c1N(C)C(=O)C1CCCCC1 [CBK147161]	99.1
Cc1nc2c(OCc3ccc(F)c(F)c3)cccn2c1N(C)C(=O)CCC1CCCC1 [CBK147202]	99.3
CCC(CC)C(=O)N(C)c1c(C)nc2c(OCC(=O)c3ccc(F)cc3)cccn12 [CBK147239]	113
Cc1nc2c(OCC3CCCCC3)cccn2c1N(C)CC1CC1 [CBK147279]	97.2
Cc1nc2c(OCC(=O)c3ccc(Cl)cc3Cl)cccn2c1N(C)CC1CC1 [CBK147294]	105

SMILES	viability at 28.5 h, 10 µM [%]
CCN(C)c1c(C)nc2c(OCc3ccccc3C(=O)OC)cccn12 [CBK147321]	95.5
CCc1nc2c(OCCOc3ccccc3)cccn2c1N(C)C(=O)COc1ccccc1 [CBK147355]	95.2
CCOC(=O)N(C)c1c(CC)nc2c(OCC(=O)C(C)(C)C)cccn12 [CBK147382]	94.2
CCc1nc2c(OCCCN(C)S(C)(=O)=O)cccn2c1N(C)C(=O)c1ccco1 [CBK147435]	95
CCc1nc2c(OCC(=O)N3CCOCC3)cccn2c1N(C)C(=O)c1ccco1 [CBK147436]	92
CCc1nc2c(OCC=C(C)C)cccn2c1N(C)C(=O)c1cccc(OC)c1 [CBK147448]	94.3
COc1ccc(CN(C)c2c(C)nc3c(OCC(=O)C(C)(C)C)cccn23)cc1 [CBK147458]	100
COc1ccc(CN(C)c2c(C)nc3c(OCCc4cccc(OC)c4)cccn23)cc1 [CBK147467]	109
CCc1nc2c(OCCOc3ccc(F)cc3)cccn2c1N(C)C(=O)c1ccncc1 [CBK147472]	93.6
CCc1nc2c(OCCOc3ccccc3)cccn2c1N(C=O)CC(=O)N(C)C [CBK147510]	96.5
CCc1nc2c(OCC(=O)c3ccc(Cl)cc3Cl)cccn2c1N(C)C(=O)C1CC1 [CBK147712]	89.7
CCc1nc2c(Oc3nc4ccccc4s3)cccn2c1N(C)C(=O)C(C)C [CBK147765]	88.5
CCCCC(=O)N(C)c1c(CC)nc2c(OCc3ccc(C#N)cc3)cccn12 [CBK147779]	94.6
CCNC(=O)N(C)c1c(CC)nc2c(OCc3ccc(S(C)(=O)=O)cc3)cccn12 [CBK147797]	93.4
CCc1nc2c(OCC3CCCCC3)cccn2c1N(C=O)Cc1ccc(OC)cc1 [CBK147811]	100
C=CCOc1cccn2c(N(C=O)Cc3ccccc3)c(CC)nc12 [CBK147827]	92.2
CCCOc1cccn2c(N(CC(=O)N(C)C)C(C)=O)c(CC)nc12 [CBK147850]	102
CCOC(=O)C(=O)N(C)c1c(CC)nc2c(OCc3ccccc3)cccn12 [CBK147879]	86.8
Cc1cccnc1C(NC(=O)C1CCN(CCOc2ccccc2)CC1)c1ccc(F)cc1 (stereo not drawn) [CBK147892]	91.8
Cc1cccnc1C(NC(=O)C1CCN(CCCN2C(=O)CC3CCCCC3C2=O)CC1)c1ccc(F)cc1 (stereo not drawn) [CBK147910]	91.2
COc1ccccc1C(NC(=O)C1CCN(CCn2cnc3c2c(=O)n(C)c(=O)n3C)CC1)c1ccccn1 (stereo not drawn) [CBK147939]	91.7

SMILES	viability at 28.5 h, 10 µM [%]
COc1ccccc1C(NC(=O)C1CCN(CCCN2C(=O)CC3CCCCC3C2=O)CC1)c1ccccn1 (stereo not drawn) [CBK147940]	95
COc1cc(CN2CCC(C(=O)NC(c3ccc(Cl)cc3)c3ccsc3)CC2)cc(OC)c1 (stereo not drawn) [CBK147962]	95.3
O=C(NC(c1ccc(Cl)cc1)c1ccsc1)C1CCN(CCCN2C(=O)CC3CCCCC3C2=O)CC1 (stereo not drawn) [CBK147974]	85.3
Cc1ccccc1C(NC(=O)C1CCN(C/C=C/c2ccccc2)CC1)c1ncccc1C (stereo not drawn) [CBK147980]	102
O=C(NC(c1ccc(-c2ccccc2)cc1)c1cnccn1)C1CCN(CCc2ccc(F)cc2)CC1 (stereo not drawn) [CBK147981]	92.6
Cc1ccc(C(NC(=O)C2CCN(Cc3ccc(Cl)cc3)CC2)c2ccccn2)cc1 (stereo not drawn) [CBK148007]	103
O=C(NC(c1ccc(Cl)cc1)c1cnccn1)C1CCN(Cc2ccc(Oc3ccccc3)cc2)CC1 (stereo not drawn) [CBK148023]	108
COc1ccc(C(NC(=O)C2CCN(Cc3c[nH]c4ccccc34)CC2)c2ccccn2)cc1 (stereo not drawn) [CBK148033]	121
CC(NC(=O)C1CCN(Cc2nccs2)CC1)c1ccc(F)cc1 (stereo not drawn) [CBK148056]	102
COc1cc(OC)nc(C(NC(=O)C2CCN(Cc3ccccc3F)CC2)c2ccc(Cl)cc2)n1 (stereo not drawn) [CBK148152]	98
Cc1cccnc1C(NC(=O)C1CCN(Cc2cccn2C)CC1)c1ccc(Cl)cc1 (stereo not drawn) [CBK148174]	110
COc1cc(OC)nc(C(NC(=O)C2CCN(Cc3cn(C)c4ccccc34)CC2)c2ccc(F)cc2)n1 (stereo not drawn) [CBK148185]	90.7
Cc1cccnc1C(NC(=O)C1CCN(C/C=C/c2ccco2)CC1)c1ccc(Cl)cc1 (stereo not drawn) [CBK148201]	90
COc1cc(OC)nc(C(NC(=O)C2CCN(Cc3ccc(N(C)C)cc3)CC2)c2ccc(F)cc2)n1 (stereo not drawn) [CBK148204]	88.9
COc1cc(OC)nc(C(NC(=O)C2CCN(Cc3nccs3)CC2)c2ccc(Cl)cc2)n1 (stereo not drawn) [CBK148217]	85.8
Cc1cccnc1C(NC(=O)C1CCN(Cc2ccoc2)CC1)c1ccc(Cl)cc1 (stereo not drawn) [CBK148227]	102
O=C(NC(c1ccccc1)c1ccco1)C1CCN(CCc2c[nH]c3ccccc23)CC1 (stereo not drawn) [CBK148290]	100
O=C(NC(c1ccccc1)c1ccco1)C1CCN(Cc2cccc(Cl)c2)CC1 (stereo not drawn) [CBK148295]	103
